According to ChEMBL document CHEMBL1128307, “2-Aralkynyl and 2-heteroalkynyl derivatives of adenosine-5'-N-ethyluronamide as selective A2a adenosine receptor agonists” (J Med Chem, 1995):
pEC50, pKi: −log10 of the molar value.

Tests used:
Adenosine receptor A1 [1] = target: T1, Adenosine receptor A1 (Rattus norvegicus, UniProt P25099); assay: Functional activity against adenosine A1 receptor from rat atria.
T1 sequence (P25099 whole entry): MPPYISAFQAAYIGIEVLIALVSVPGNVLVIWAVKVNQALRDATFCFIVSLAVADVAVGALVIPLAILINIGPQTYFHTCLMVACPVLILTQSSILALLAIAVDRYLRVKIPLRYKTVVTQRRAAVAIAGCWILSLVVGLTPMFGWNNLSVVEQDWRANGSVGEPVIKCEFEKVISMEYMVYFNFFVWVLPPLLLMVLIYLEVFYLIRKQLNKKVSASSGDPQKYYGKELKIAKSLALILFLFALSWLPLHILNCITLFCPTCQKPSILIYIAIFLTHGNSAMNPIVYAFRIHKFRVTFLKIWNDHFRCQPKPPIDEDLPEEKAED

[2] = Hydrophobicity index (k'') (RP-HPLC pH 7.5); type: ADME
Adenosine receptor A1 [3] = target: T1, Adenosine receptor A1
Description: Binding affinity against adenosine A1 receptor from rat brain using [3H]CHA as a radioligand.

Adenosine receptor A2a [4] = target: T2, Adenosine receptor A2a (Rattus norvegicus, UniProt P30543)
T2 sequence (P30543 whole entry): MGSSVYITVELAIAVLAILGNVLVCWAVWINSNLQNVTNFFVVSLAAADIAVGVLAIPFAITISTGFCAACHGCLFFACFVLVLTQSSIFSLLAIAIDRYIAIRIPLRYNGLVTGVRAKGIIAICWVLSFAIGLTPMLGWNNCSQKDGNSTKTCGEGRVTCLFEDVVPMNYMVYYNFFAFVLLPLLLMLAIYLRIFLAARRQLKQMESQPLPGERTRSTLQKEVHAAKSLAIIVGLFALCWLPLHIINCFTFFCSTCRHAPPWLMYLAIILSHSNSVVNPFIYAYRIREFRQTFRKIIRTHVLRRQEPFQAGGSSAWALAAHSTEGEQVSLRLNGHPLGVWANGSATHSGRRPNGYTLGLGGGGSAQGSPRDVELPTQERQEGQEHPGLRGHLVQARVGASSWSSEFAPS

Adenosine receptor A2a [5] = target: T2, Adenosine receptor A2a; remark: listed apart in the source
Description: Functional activity against adenosine A2a receptor from rat aorta.

Adenosine receptor A2a [6] = target: T2, Adenosine receptor A2a; assay: Functional activity against A2a adenosine receptor from rat aorta.

Structure (SMILES) | pEC50 (Adenosine receptor A1 [1]) | k' [2] | pKi (Adenosine receptor A1 [3]) | pKi (Adenosine receptor A2a [4]) | pEC50 (Adenosine receptor A2a [5]) | pEC50 (Adenosine receptor A2a [6])
CCNC(=O)[C@H]1OC(n2cnc3c(N)nc(C#Cc4ccc(N)cc4)nc32)[C@H](O)[C@@H]1O (stereo not given in full) | < 5.00 | 0.46 | 6.22 | 6.95 | 5.39 | 
CCNC(=O)[C@H]1OC(n2cnc3c(N)nc(C#Cc4nccs4)nc32)[C@H](O)[C@@H]1O (stereo not given in full) | 5.15 | 0.55 | 7.07 | 7.38 | 7.54 | 
CCNC(=O)[C@H]1OC(n2cnc3c(N)nc(C#Cc4cccc(C=O)c4)nc32)[C@H](O)[C@@H]1O (stereo not given in full) | < 5.00 | 1.06 | 5.84 | 6.75 | 5.45 | 
CCNC(=O)[C@H]1OC(n2cnc3c(N)nc(C#Cc4ccncc4)nc32)[C@H](O)[C@@H]1O (stereo not given in full) | < 5.00 | 0.57 | 6.37 | 7.06 | < 5.00 | 
CCNC(=O)[C@H]1OC(n2cnc3c(N)nc(C#CCN4CCOCC4)nc32)[C@H](O)[C@@H]1O (stereo not given in full) | 6.45 | 0.28 | 7.04 | 7.56 | 6.27 | 
CCNC(=O)[C@H]1OC(n2cnc3c(N)nc(C#Cc4ccc(CCC(=O)OC(C)(C)C)cc4)nc32)[C@H](O)[C@@H]1O (stereo not given in full) | < 5.00 | 2.28 | < 5.00 | 6.13 | 5.87 | 
CCNC(=O)[C@H]1OC(n2cnc3c(N)nc(C#Cc4ccc(C)cc4)nc32)[C@H](O)[C@@H]1O (stereo not given in full) | 5.07 | 3.59 | 6.30 | 7.44 | 5.48 | 
CCNC(=O)[C@H]1OC(n2cnc3c(N)nc(C#Cc4ccc(OC)cc4)nc32)[C@H](O)[C@@H]1O (stereo not given in full) | < 5.00 | 2.15 | 6.38 | 7.28 | 5.46 | 
CCCCC#Cc1nc(N)c2ncn([C@@H]3O[C@H](C(=O)NCC)[C@@H](O)[C@H]3O)c2n1 |  | 2.57 |  |  | 6.22 | 
CCNC(=O)[C@H]1OC(n2cnc3c(N)nc(C#Cc4ccc([N+](=O)[O-])cc4)nc32)[C@H](O)[C@@H]1O (stereo not given in full) | < 5.00 | 1.82 | 6.05 | 7.67 | 5.92 | 
C#Cc1nc(N)c2ncn([C@@H]3O[C@H](C(=O)NCC)[C@@H](O)[C@H]3O)c2n1 |  | 0.25 |  | 7.24 | 6.36 | 
CCNC(=O)[C@H]1OC(n2cnc3c(N)nc(C#Cc4ccc(O)cc4)nc32)[C@H](O)[C@@H]1O (stereo not given in full) | < 5.00 | 0.66 | 6.30 | 7.69 | 6.18 | 
CCNC(=O)[C@H]1O[C@@H](n2cnc3c(N)nc(NCCc4ccc(CCC(=O)O)cc4)nc32)[C@H](O)[C@@H]1O [CGS-21680] |  | 0.24 |  |  |  | 
CCNC(=O)[C@H]1OC(n2cnc3c(N)nc(C#Cc4cccc5ccccc45)nc32)[C@H](O)[C@@H]1O (stereo not given in full) | < 5.00 | 5.49 | 5.35 | 6.31 | 6.33 | 
OC[C@H]1O[C@@H](n2cnc3c(NC4CCCC4)nc(Cl)nc32)[C@H](O)[C@@H]1O |  | 2.76 |  |  |  | 
CCNC(=O)[C@H]1O[C@@H](n2cnc3c(N)ncnc32)[C@H](O)[C@@H]1O [NECA] |  | 0.19 |  |  |  | 
CCNC(=O)[C@H]1OC(n2cnc3c(N)nc(C#CCN4CCN(C)CC4)nc32)[C@H](O)[C@@H]1O (stereo not given in full) | 6.06 | 0.42 | 7.44 | 7.72 | 6.39 | 
CCNC(=O)[C@H]1OC(n2cnc3c(N)nc(C#Cc4ccc(C(N)=O)cc4)nc32)[C@H](O)[C@@H]1O (stereo not given in full) | < 5.00 | 0.32 | 5.13 | 5.82 | 5.19 | 

Structure (SMILES) | pEC50 (Adenosine receptor A1 [1]) | k' [2] | pKi (Adenosine receptor A1 [3]) | pKi (Adenosine receptor A2a [4]) | pEC50 (Adenosine receptor A2a [5]) | pEC50 (Adenosine receptor A2a [6])
CCNC(=O)[C@H]1OC(n2cnc3c(N)nc(C#Cc4ccc(C=O)cc4)nc32)[C@H](O)[C@@H]1O (stereo not given in full) | < 5.00 | 1.02 | 6.00 | 8.20 | 6.96 | 
CCNC(=O)[C@H]1OC(n2cnc3c(N)nc(C#CCN4CCCCC4)nc32)[C@H](O)[C@@H]1O (stereo not given in full) | 6.49 | 1.11 | 7.56 | 8.37 | 6.52 | 
CCNC(=O)[C@H]1O[C@@H](n2cnc3c(N)nc(C#Cc4ccccc4)nc32)[C@H](O)[C@@H]1O | < 5.00 | 2.04 | 6.16 | 6.92 | 5.82 | 
CCNC(=O)[C@H]1OC(n2cnc3c(N)nc(C#Cc4ccc(CCC(=O)O)cc4)nc32)[C@H](O)[C@@H]1O (stereo not given in full) | < 5.00 |  | < 6.00 | < 6.00 | 11.10 | 
CCNC(=O)[C@H]1O[C@@H](n2cnc3c(N)nc(C#CCCCc4ccccc4)nc32)[C@H](O)[C@@H]1O | 5.19 | 5.82 | 6.68 | 8.92 |  | 
CCNC(=O)[C@H]1OC(n2cnc3c(N)nc(C#Cc4ccccc4C=O)nc32)[C@H](O)[C@@H]1O (stereo not given in full) | < 5.00 | 1.14 | 5.16 | 5.94 | 5.89 | 
CCNC(=O)[C@H]1OC(n2cnc3c(N)nc(C#Cc4ccc(F)cc4)nc32)[C@H](O)[C@@H]1O (stereo not given in full) | < 5.00 | 2.33 | 5.48 | 7.09 | < 5.00 | 
CCNC(=O)[C@H]1OC(n2cnc3c(N)nc(C#Cc4cccnc4)nc32)[C@H](O)[C@@H]1O (stereo not given in full) | 6.38 | 0.51 | 6.86 | 6.63 | 6.31 | 
CCNC(=O)[C@H]1OC(n2cnc3c(N)nc(C#Cc4ccc(C(C)=O)cc4)nc32)[C@H](O)[C@@H]1O (stereo not given in full) | < 5.00 | 1.18 | < 5.00 | 6.73 | 5.78 | 
CCNC(=O)[C@H]1OC(n2cnc3c(N)nc(C#Cc4cccs4)nc32)[C@H](O)[C@@H]1O (stereo not given in full) | < 5.00 | 1.63 | 6.22 | 7.71 |  | 6.64
CCNC(=O)[C@H]1OC(n2cnc3c(N)nc(C#CCn4ccnc4)nc32)[C@H](O)[C@@H]1O (stereo not given in full) | 5.50 | 0.22 | 6.75 | 7.78 | 6.12 | 
CCNC(=O)[C@H]1OC(n2cnc3c(N)nc(C#Cc4ccco4)nc32)[C@H](O)[C@@H]1O (stereo not given in full) | < 5.00 | 1.06 | 6.51 | 6.89 | < 5.00 | 
CCNC(=O)[C@H]1OC(n2cnc3c(N)nc(C#Cc4ccc(C(F)(F)F)cc4)nc32)[C@H](O)[C@@H]1O (stereo not given in full) |  | 5.79 | 5.61 | 6.50 | 5.52 | 
CCNC(=O)[C@H]1OC(n2cnc3c(N)nc(C#CCc4ccccc4)nc32)[C@H](O)[C@@H]1O (stereo not given in full) | 6.79 | 2.4 | 7.56 | 8.80 | 6.39 | 
CCNC(=O)[C@H]1OC(n2cnc3c(N)nc(C#Cc4ccc(CC#N)cc4)nc32)[C@H](O)[C@@H]1O (stereo not given in full) | < 5.00 | 0.76 | 5.80 | 7.26 | 5.19 | 
CCNC(=O)[C@H]1OC(n2cnc3c(N)nc(C#Cc4ccccn4)nc32)[C@H](O)[C@@H]1O (stereo not given in full) | 6.08 | 0.49 | 6.94 | 7.05 | 6.61 | 
CCNC(=O)[C@H]1OC(n2cnc3c(N)nc(C#CCCc4ccccc4)nc32)[C@H](O)[C@@H]1O (stereo not given in full) | < 5.00 | 3.16 | 6.35 | 8.15 | 6.68 | 
CCNC(=O)[C@H]1OC(n2cnc3c(N)nc(C#CCN4CCSCC4)nc32)[C@H](O)[C@@H]1O (stereo not given in full) | 6.51 | 0.66 | 7.28 | 8.23 | 6.65 | 
